Results: publication PMC10111022, “Comparison of pharmacological inhibitors of lysine-specific demethylase 1 in glioblastoma stem cells reveals inhibitor-specific efficacy profiles” (Frontiers in Neurology, 2023)

Test system: MDA-GSC7-2
Assay: qPCR of resistance-related genes, MDA-GSC7-2
Assay type: cell-based, Human
Settings: MDA-GSC7-2 (sensitive)
Protocol: Total RNA was extracted using RNeasy Plus Mini Kit (Qiagen; Hilden, Germany) following the manufacturer’s protocol. cDNA was synthesized with the iScript cDNA synthesis kit (Bio-Rad; Hercules, CA), qPCR was performed using Forget-Me-Not EvaGreen qPCR kit (Biotium; Fremont, CA), and samples were analyzed with the LightCycler96 (Roche; Basel, Switzerland). Cq values were normalized to PPIA and reported as relative fold change from untreated control.

SMILES: c1ccc([C@@H]2C[C@H]2NC2CCNCC2)cc1 [GSK-LSD1]
- expression of resistance-related genes (FTH1, RAB39B, HKDC1, FAM213A): inappreciable effects
